Source: US11109593B2, “Isoxazolin-5-one derivative and herbicide containing same as active ingredient” (HOKKO CHEMICAL INDUSTRY CO., LTD., priority 2017, dated 2021)

These molecules were tested on Echinochloa crus-galli (assay: Test Example 1: herbicidal effect test by treatment of rice paddy soil (immediately after seeding)). Conditions: 120 g/10a active ingredient, dry weight vs untreated area, 14 days after treatment.
Type: in vivo
In short: (§1)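 Paddy soil in pots with compound fertilizer, puddled; 30 seeds per species sown at 0–1 cm, flooded ~3 cm, greenhouse. Water-diluted emulsions dropped onto water immediately after seeding at 120 g active ingredient per 10 ares, duplicate. Herbicidal rate (%) from plant dry weight versus untreated, 14 days after treatment.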

| SMILES | Herbicidal rate (%) Echinochloa crus-galli [%] |
| --- | --- |
| CCC(C)Cn1oc(=O)c(Cc2ccccc2N(S(=O)(=O)C(F)(F)F)S(=O)(=O)C(F)(F)F)c1C (stereo not drawn) [Compound 1-972] | 100 |
| CCCCn1oc(=O)c(Cc2ccccc2N(S(=O)(=O)C(F)(F)F)S(=O)(=O)C(F)(F)F)c1C [Compound 1-969] | 100 |
| Cc1c(Cc2ccccc2N(C(=O)c2ccccc2)S(=O)(=O)C(F)(F)F)c(=O)on1C(C)C [Compound 1-472] | 90 |

The molecules below were run on Scirpus juncoides in the same assay as above. Conditions: 120 g/10a active ingredient, dry weight vs untreated area, 14 days after treatment.
Type: in vivo
In short: as §1

| SMILES | Herbicidal rate (%) Scirpus juncoides [%] |
| --- | --- |
| CCC(C)Cn1oc(=O)c(Cc2ccccc2N(S(=O)(=O)C(F)(F)F)S(=O)(=O)C(F)(F)F)c1C (stereo not drawn) [Compound 1-972] | 100 |
| CCCCn1oc(=O)c(Cc2ccccc2N(S(=O)(=O)C(F)(F)F)S(=O)(=O)C(F)(F)F)c1C [Compound 1-969] | 90 |
| Cc1c(Cc2ccccc2N(C(=O)c2ccccc2)S(=O)(=O)C(F)(F)F)c(=O)on1C(C)C [Compound 1-472] | 90 |

These molecules were tested on broad leaf weeds (Lindernia pyxidaria and Monochoria vaginalis) in the same assay as above. Conditions: Lindernia pyxidaria, 120 g/10a active ingredient, dry weight vs untreated area, 14 days after treatment.
Type: in vivo
In short: as §1

| SMILES | Herbicidal rate (%) Lindernia pyxidaria [%] |
| --- | --- |
| CCC(C)Cn1oc(=O)c(Cc2ccccc2N(S(=O)(=O)C(F)(F)F)S(=O)(=O)C(F)(F)F)c1C (stereo not drawn) [Compound 1-972] | 100 |
| CCCCn1oc(=O)c(Cc2ccccc2N(S(=O)(=O)C(F)(F)F)S(=O)(=O)C(F)(F)F)c1C [Compound 1-969] | 100 |
| Cc1c(Cc2ccccc2N(C(=O)c2ccccc2)S(=O)(=O)C(F)(F)F)c(=O)on1C(C)C [Compound 1-472] | 90 |

Same assay, conditions: Monochoria vaginalis, 120 g/10a active ingredient, dry weight vs untreated area, 14 days after treatment

| SMILES | Herbicidal rate (%) Monochoria vaginalis [%] |
| --- | --- |
| CCC(C)Cn1oc(=O)c(Cc2ccccc2N(S(=O)(=O)C(F)(F)F)S(=O)(=O)C(F)(F)F)c1C (stereo not drawn) [Compound 1-972] | 100 |
| CCCCn1oc(=O)c(Cc2ccccc2N(S(=O)(=O)C(F)(F)F)S(=O)(=O)C(F)(F)F)c1C [Compound 1-969] | 80 |
| Cc1c(Cc2ccccc2N(C(=O)c2ccccc2)S(=O)(=O)C(F)(F)F)c(=O)on1C(C)C [Compound 1-472] | 60 |

The molecules below were run on Echinochloa crus-galli (assay: Test Example 2: herbicidal effect test by treatment during growing period in paddy rice cultivation (seven days after seeding)). Conditions: 120 g/10a active ingredient, assessed 14 days after treatment, dry weight vs untreated area.
Type: in vivo
In short: (§2)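 Emulsion formulations, diluted in water, applied dropwise to flooded pots (about 3 cm water) 7 days post-seeding at 120 g a.i./10 ares. Weeds sown 30 seeds each, 0–1 cm deep in puddled paddy soil; greenhouse. Readout: % reduction in plant dry weight vs untreated, day 14, duplicates.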

| SMILES | Herbicidal rate (%) Echinochloa crus-galli [%] |
| --- | --- |
| CCC(C)Cn1oc(=O)c(Cc2ccccc2N(S(=O)(=O)C(F)(F)F)S(=O)(=O)C(F)(F)F)c1C (stereo not drawn) [Compound 1-972] | 100 |
| CCCCn1oc(=O)c(Cc2ccccc2N(S(=O)(=O)C(F)(F)F)S(=O)(=O)C(F)(F)F)c1C [Compound 1-969] | 100 |
| Cc1c(Cc2ccccc2N(C(=O)c2ccccc2)S(=O)(=O)C(F)(F)F)c(=O)on1C(C)C [Compound 1-472] | 90 |

Each molecule was assayed on Scirpus juncoides in the same assay as above. Conditions: 120 g/10a active ingredient, assessed 14 days after treatment, dry weight vs untreated area.
Type: in vivo
In short: as §2

| SMILES | Herbicidal rate (%) Scirpus juncoides [%] |
| --- | --- |
| CCC(C)Cn1oc(=O)c(Cc2ccccc2N(S(=O)(=O)C(F)(F)F)S(=O)(=O)C(F)(F)F)c1C (stereo not drawn) [Compound 1-972] | 90 |
| CCCCn1oc(=O)c(Cc2ccccc2N(S(=O)(=O)C(F)(F)F)S(=O)(=O)C(F)(F)F)c1C [Compound 1-969] | 90 |
| Cc1c(Cc2ccccc2N(C(=O)c2ccccc2)S(=O)(=O)C(F)(F)F)c(=O)on1C(C)C [Compound 1-472] | 90 |

The molecules below were run on broad leaf weeds (Lindernia pyxidaria and Monochoria vaginalis) in the same assay as above. Conditions: Lindernia pyxidaria, 120 g/10a active ingredient, assessed 14 days after treatment, dry weight vs untreated area.
Type: in vivo
In short: as §2

| SMILES | Herbicidal rate (%) Lindernia pyxidaria [%] |
| --- | --- |
| CCC(C)Cn1oc(=O)c(Cc2ccccc2N(S(=O)(=O)C(F)(F)F)S(=O)(=O)C(F)(F)F)c1C (stereo not drawn) [Compound 1-972] | 80 |
| CCCCn1oc(=O)c(Cc2ccccc2N(S(=O)(=O)C(F)(F)F)S(=O)(=O)C(F)(F)F)c1C [Compound 1-969] | 60 |
| Cc1c(Cc2ccccc2N(C(=O)c2ccccc2)S(=O)(=O)C(F)(F)F)c(=O)on1C(C)C [Compound 1-472] | 80 |

Same assay, conditions: Monochoria vaginalis, 120 g/10a active ingredient, assessed 14 days after treatment, dry weight vs untreated area

| SMILES | Herbicidal rate (%) Monochoria vaginalis [%] |
| --- | --- |
| CCC(C)Cn1oc(=O)c(Cc2ccccc2N(S(=O)(=O)C(F)(F)F)S(=O)(=O)C(F)(F)F)c1C (stereo not drawn) [Compound 1-972] | 100 |
| CCCCn1oc(=O)c(Cc2ccccc2N(S(=O)(=O)C(F)(F)F)S(=O)(=O)C(F)(F)F)c1C [Compound 1-969] | 90 |
| Cc1c(Cc2ccccc2N(C(=O)c2ccccc2)S(=O)(=O)C(F)(F)F)c(=O)on1C(C)C [Compound 1-472] | 90 |

What follows are molecules tested on Amaranthus viridis (assay: Test Example 3: herbicidal effect test by treatment of dry field farming soil (one day after seeding)). Conditions: 120 g/10a active ingredient, evaluated 14 days after treatment.
Type: in vivo
Protocol: (§3) This test was conducted in a double system per one agent solution concentration area, and the herbicidal rates (%) were determined by the following equation (Math. 1) on 14 days after the treatment with the agents. Herbicidal Rate (%)={1-(Average Dry Weight (g) of Plant of Treated Area)/(Average Dry Weight (g) of Plant of Untreated Area)}×100 [Math. 1]
(§4) Herbicidal Effect Test by Treatment of Dry Field Farming Soil
(§5) Pots with a size of 36 cm^2 were filled with a dry field farming soil (alluvium). The soil of the top layer of 1 cm and seeds of weeds, namely southern crabgrass, Echinochloa crus-galli, Chenopodium album and Amaranthus viridis, 20 seeds each, were evenly mixed, and the top layer was gently pressed. Emulsions prepared using the compounds in Table 5 below according to Formulation Example 5 were diluted with water one day after seeding, and the water-diluted agent solutions were sprayed to the soil surfaces at a ratio of 100 liters per 10 ares. The converted amount of the applied active ingredient corresponded to 120 g per 10 ares. The herbicidal effects were evaluated by the same standard as that in Test Example 1 on 14 days after the treatment with the agents. […] The compound numbers in Table 5 are the same as those in Table 1 and Table 2 above.

| SMILES | herbicidal rate, Amaranthus viridis [%] |
| --- | --- |
| CCC(C)Cn1oc(=O)c(Cc2ccccc2N(S(=O)(=O)C(F)(F)F)S(=O)(=O)C(F)(F)F)c1C (stereo not drawn) [Compound 1-972] | 100 |
| CCCCn1oc(=O)c(Cc2ccccc2N(S(=O)(=O)C(F)(F)F)S(=O)(=O)C(F)(F)F)c1C [Compound 1-969] | 40 |
| Cc1c(Cc2ccccc2N(C(=O)c2ccccc2)S(=O)(=O)C(F)(F)F)c(=O)on1C(C)C [Compound 1-472] | 0 |

What follows are molecules tested on Chenopodium album in the same assay as above. Conditions: 120 g/10a active ingredient, evaluated 14 days after treatment.
Type: in vivo
Protocol: as §3, §4, §5

| SMILES | herbicidal rate, Chenopodium album [%] |
| --- | --- |
| CCC(C)Cn1oc(=O)c(Cc2ccccc2N(S(=O)(=O)C(F)(F)F)S(=O)(=O)C(F)(F)F)c1C (stereo not drawn) [Compound 1-972] | 100 |
| CCCCn1oc(=O)c(Cc2ccccc2N(S(=O)(=O)C(F)(F)F)S(=O)(=O)C(F)(F)F)c1C [Compound 1-969] | 40 |
| Cc1c(Cc2ccccc2N(C(=O)c2ccccc2)S(=O)(=O)C(F)(F)F)c(=O)on1C(C)C [Compound 1-472] | 50 |

What follows are molecules tested on Echinochloa crus-galli in the same assay as above. Conditions: 120 g/10a active ingredient, evaluated 14 days after treatment.
Type: in vivo
Protocol: as §3, §4, §5

| SMILES | herbicidal rate, Echinochloa crus-galli [%] |
| --- | --- |
| CCC(C)Cn1oc(=O)c(Cc2ccccc2N(S(=O)(=O)C(F)(F)F)S(=O)(=O)C(F)(F)F)c1C (stereo not drawn) [Compound 1-972] | 90 |
| CCCCn1oc(=O)c(Cc2ccccc2N(S(=O)(=O)C(F)(F)F)S(=O)(=O)C(F)(F)F)c1C [Compound 1-969] | 90 |
| Cc1c(Cc2ccccc2N(C(=O)c2ccccc2)S(=O)(=O)C(F)(F)F)c(=O)on1C(C)C [Compound 1-472] | 90 |

These molecules were tested on southern crabgrass in the same assay as above. Conditions: 120 g/10a active ingredient, evaluated 14 days after treatment.
Type: in vivo
Protocol: as §3, §4, §5

| SMILES | herbicidal rate, southern crabgrass [%] |
| --- | --- |
| CCC(C)Cn1oc(=O)c(Cc2ccccc2N(S(=O)(=O)C(F)(F)F)S(=O)(=O)C(F)(F)F)c1C (stereo not drawn) [Compound 1-972] | 90 |
| CCCCn1oc(=O)c(Cc2ccccc2N(S(=O)(=O)C(F)(F)F)S(=O)(=O)C(F)(F)F)c1C [Compound 1-969] | 80 |
| Cc1c(Cc2ccccc2N(C(=O)c2ccccc2)S(=O)(=O)C(F)(F)F)c(=O)on1C(C)C [Compound 1-472] | 70 |
